The numbers were not newly measured in patent publication US20250151766A1, “SWEETENED COMPOSITION AND PREPARATION METHOD AND USE THEREOF” (GUILIN LAYN NATURAL INGREDIENTS CORP., priority 2022, published 2025), which cites them from elsewhere.

The conditions of this data set: general statement in the description.

Turning to `O=C(CO)[C@@H](O)[C@H](O)[C@H](O)CO` [fructose], the sweetness is recorded as 1.5 ×.
